US10793563B2, “GCN2 inhibitors and uses thereof” (Merck Patent GmbH, priority 2018, dated 2020)
pIC50, pKi: −log10 of the molar value.

What follows are compounds tested against GCN2 kinase (Homo sapiens (Human), UniProt Q9P2K8) (assay: GCN2 Enzyme Inhibition Assay (Transcreener ADP2 fluorescence polarization)). Conditions: 280 μM ATP, 200 μM (RS)7 peptide, 4 nM GCN2, 25° C.
Type: biochemical
Procedure, shortened: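 Transcreener ADP2 fluorescence polarization detection of ADP from 4 nM GCN2 with (RS)7 substrate in 25 mM Tris-HCl pH 7.5, 50 mM NaCl, 10 mM MgCl2, 1 mM DTT. Compound pre-incubated with enzyme 10 min at 25 °C; reaction started by ATP, run 1 h at 25 °C. IC50 and Ki(app) by tight-binding fit.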

GCN2 kinase, sequence (Q9P2K8 whole entry): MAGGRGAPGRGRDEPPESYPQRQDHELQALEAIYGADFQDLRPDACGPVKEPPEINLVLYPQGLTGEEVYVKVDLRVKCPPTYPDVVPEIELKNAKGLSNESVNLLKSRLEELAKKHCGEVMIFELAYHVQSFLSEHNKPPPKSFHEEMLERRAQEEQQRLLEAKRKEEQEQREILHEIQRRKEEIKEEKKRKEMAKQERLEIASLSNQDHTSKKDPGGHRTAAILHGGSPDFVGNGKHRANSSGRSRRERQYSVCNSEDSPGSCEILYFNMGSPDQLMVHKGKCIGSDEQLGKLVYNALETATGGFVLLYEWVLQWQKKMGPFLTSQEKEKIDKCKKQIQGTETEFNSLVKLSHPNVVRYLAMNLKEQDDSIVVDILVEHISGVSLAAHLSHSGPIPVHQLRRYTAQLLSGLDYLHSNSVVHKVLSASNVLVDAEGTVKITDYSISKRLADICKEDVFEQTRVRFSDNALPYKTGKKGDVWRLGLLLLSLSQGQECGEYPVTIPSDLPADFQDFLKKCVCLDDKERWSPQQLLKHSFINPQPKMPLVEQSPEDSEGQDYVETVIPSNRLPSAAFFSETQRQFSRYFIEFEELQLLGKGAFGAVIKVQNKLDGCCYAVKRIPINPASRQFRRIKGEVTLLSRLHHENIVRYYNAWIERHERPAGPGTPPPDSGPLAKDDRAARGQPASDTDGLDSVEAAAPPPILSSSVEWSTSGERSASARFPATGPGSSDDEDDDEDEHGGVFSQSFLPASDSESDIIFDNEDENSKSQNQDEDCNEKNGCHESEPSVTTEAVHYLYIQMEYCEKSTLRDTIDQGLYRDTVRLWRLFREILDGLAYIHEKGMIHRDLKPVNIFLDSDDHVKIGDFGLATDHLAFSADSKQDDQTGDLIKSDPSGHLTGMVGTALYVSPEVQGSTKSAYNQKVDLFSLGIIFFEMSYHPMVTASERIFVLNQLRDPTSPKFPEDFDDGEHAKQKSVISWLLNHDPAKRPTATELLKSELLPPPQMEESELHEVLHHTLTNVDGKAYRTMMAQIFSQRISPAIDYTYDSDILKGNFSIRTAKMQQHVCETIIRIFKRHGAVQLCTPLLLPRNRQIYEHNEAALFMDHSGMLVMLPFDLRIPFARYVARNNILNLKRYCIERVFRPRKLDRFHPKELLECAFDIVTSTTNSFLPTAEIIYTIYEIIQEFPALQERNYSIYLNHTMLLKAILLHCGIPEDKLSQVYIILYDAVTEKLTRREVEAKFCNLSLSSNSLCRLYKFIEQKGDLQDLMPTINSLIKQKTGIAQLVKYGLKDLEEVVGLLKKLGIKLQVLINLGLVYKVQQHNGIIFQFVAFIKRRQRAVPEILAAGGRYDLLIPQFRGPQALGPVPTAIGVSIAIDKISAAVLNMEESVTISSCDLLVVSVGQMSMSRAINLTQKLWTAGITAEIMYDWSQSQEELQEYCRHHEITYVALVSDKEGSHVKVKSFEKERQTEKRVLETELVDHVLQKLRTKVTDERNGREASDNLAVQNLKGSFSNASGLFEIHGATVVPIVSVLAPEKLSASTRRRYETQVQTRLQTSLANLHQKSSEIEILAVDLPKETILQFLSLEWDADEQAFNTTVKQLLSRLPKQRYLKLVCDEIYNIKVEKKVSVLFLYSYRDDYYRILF

SMILES	pIC50
O=C(CO)N[C@H]1C[C@H](O)CN(c2ccnc(-c3cnc4ccc(C(F)(F)F)cn34)n2)C1 [I-253, 2-hydroxy-N-((3S,5S)-5-hydroxy-1-(2-(6-(trifluoromethyl)imidazo[1,2-a]pyridin-3-yl)pyrimidin-4-yl)piperidin-3-yl)acetamide]	6.00 to 7.00
NC(=O)C1CN(c2ccnc(-c3cnc4ccc(C(F)(F)F)cn34)n2)C1 [I-228, 1-(2-(6-(trifluoromethyl)imidazo[1,2-a]pyridin-3-yl)pyrimidin-4-yl)azetidine-3-carboxamide]	6.00 to 7.00
C[C@H]1C[C@@H](N=S(C)(C)=O)CN(c2ccnc(-c3cnc4ccc(S(C)(=O)=O)cn34)n2)C1 [I-312, dimethyl(((3R,5S)-5-methyl-1-(2-(6-(methylsulfonyl)imidazo[1,2-a]pyridin-3-yl)pyrimidin-4-yl)piperidin-3-yl)imino)-λ6-sulfanone]	6.00 to 7.00
C[C@@H]1CN(c2ccnc(-c3cnc4ccc(C(F)(F)F)cn34)n2)C[C@H](C)N1S(C)(=O)=O [I-439, 3-(4-(cis-3,5-dimethyl-4-(methylsulfonyl)piperazin-1-yl)pyrimidin-2-yl)-6-(trifluoromethyl)imidazo[1,2-a]pyridine]	6.00 to 7.00
Cc1noc(C2CN(c3ccnc(-c4cnc5ccc(C(F)(F)F)cn45)n3)CCN2C)n1 (stereo not shown) [I-332, 3-methyl-5-(1-methyl-4-(2-(6-(trifluoromethyl)imidazo[1,2-a]pyridin-3-yl)pyrimidin-4-yl)piperazin-2-yl)-1,2,4-oxadiazole]	6.00 to 7.00
O=C(N[C@H]1C[C@H](O)CN(c2ccnc(-c3cnc4ccc(C(F)(F)F)cn34)n2)C1)c1cn[nH]c1 [I-257, N-((3S,5S)-5-hydroxy-1-(2-(6-(trifluoromethyl)imidazo[1,2-a]pyridin-3-yl)pyrimidin-4-yl)piperidin-3-yl)-1H-pyrazole-4-carboxamide]	6.00 to 7.00

Continued, values first:

pIC50	SMILES
7.00 to 8.00	FC(F)(F)c1ccc2ncc(-c3nccc(N4CCN(C5CCOCC5)C(c5cn[nH]c5)C4)n3)n2c1 (stereo not shown) [I-456, 3-(4-(3-(1H-pyrazol-4-yl)-4-(tetrahydro-2H-pyran-4-yl)piperazin-1-yl)pyrimidin-2-yl)-6-(trifluoromethyl)imidazo[1,2-a]pyridine]
7.00 to 8.00	N#CC1(C(=O)n2cc([C@@H]3CN(c4ccnc(-c5cnc6ccc(C(F)(F)F)cn56)n4)CCN3)cn2)CC1 [I-433, (R)-1-(4-(4-(2-(6-(trifluoromethyl)imidazo[1,2-a]pyridin-3-yl)pyrimidin-4-yl)piperazin-2-yl)-1H-pyrazole-1-carbonyl)cyclopropane-1-carbonitrile]
7.00 to 8.00	FC(F)(F)c1ccc2ncc(-c3nccc(N4CCN(CC5CC56CC6)C(c5cn[nH]c5)C4)n3)n2c1 (stereo not shown) [I-475, 3-(4-(3-(1H-pyrazol-4-yl)-4-(spiro[2.2]pentan-1-ylmethyl)piperazin-1-yl)pyrimidin-2-yl)-6-(trifluoromethyl)imidazo[1,2-a]pyridine]
7.00 to 8.00	O=C(O)CC1CCCN(c2ccnc(-c3cnc4ccc(C(F)(F)F)cn34)n2)C1 (stereo not shown) [I-165, 2-(1-(2-(6-(trifluoromethyl)imidazo[1,2-a]pyridin-3-yl)pyrimidin-4-yl)piperidin-3-yl)acetic acid]
7.00 to 8.00	Cc1cnc(N2CCC[C@H](C(N)=O)C2)nc1-c1cnc2ccc(Cl)cn12 [I-174, (S)-1-(4-(6-chloroimidazo[1,2-a]pyridin-3-yl)-5-methylpyrimidin-2-yl)piperidine-3-carboxamide]

Same assay, conditions: Ki(app); 280 μM ATP, 200 μM (RS)7 peptide, 4 nM GCN2, 25° C.

SMILES	pKi
O=C1NCC2CN(c3ccnc(-c4cnc5ccc(Cl)cn45)n3)CCN12 (stereo not shown) [I-97, 7-(2-{6-chloroimidazo[1,2-a]pyridin-3-yl}pyrimidin-4-yl)-octahydroimidazo[1,5-a]pyrazin-3-one]	7.00 to 8.00
CS(=O)(=O)N1CCC2(CCCN2c2ccnc(-c3cnc4ccc(C(F)(F)F)cn34)n2)CC1 [I-7, 8-Methylsulfonyl-1-[2-[6-(trifluoromethyl)imidazo[1,2-a]pyridin-3-yl]pyrimidin-4-yl]-1,8-diazaspiro[4.5]decane]	6.00 to 7.00
